These compounds were tested against T1, recombinant human G9a protein (Homo sapiens, UniProt Q96KQ7) (assay: G9a inhibitory activity test (ALPHA)). Details: biotinylated histone H3 peptide (1-21), SAM, read-out: Inhibitory activity (G9a IC50 value).
T1 construct: purchased BPS Bioscience Inc. #51001
T1 sequence (Q96KQ7 785-1210 limits assumed): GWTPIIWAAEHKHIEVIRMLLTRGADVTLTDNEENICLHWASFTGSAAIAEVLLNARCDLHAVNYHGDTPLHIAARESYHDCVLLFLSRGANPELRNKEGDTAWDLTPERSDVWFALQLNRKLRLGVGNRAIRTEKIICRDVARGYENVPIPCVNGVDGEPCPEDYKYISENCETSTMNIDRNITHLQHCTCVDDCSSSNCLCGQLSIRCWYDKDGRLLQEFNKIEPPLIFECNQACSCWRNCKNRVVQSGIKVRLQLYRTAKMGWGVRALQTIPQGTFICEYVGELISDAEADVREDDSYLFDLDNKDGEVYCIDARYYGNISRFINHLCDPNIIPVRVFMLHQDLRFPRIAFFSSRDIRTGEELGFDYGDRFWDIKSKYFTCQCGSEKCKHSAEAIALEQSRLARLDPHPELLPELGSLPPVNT
Assay type: biochemical
In short: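 Human G9a (0.05 to 0.1 nM) in Tris pH 9.0 buffer preincubated with compound 10 min, then biotinylated histone H3 (1-21) peptide and SAM mixed 1:1 from 500 nM and 150 μM solutions, 1 h at room temperature. H3K9me2 detected by AlphaLISA acceptor/streptavidin donor beads; IC50 from percent inhibition relative to no-compound and no-enzyme controls.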

Row | SMILES | IC50 [nM]
1 | Cc1c(C(=O)NC(CCC2CC2)C(=O)N2CCc3cc(Br)ccc32)[nH]c2c1C(=O)CC(C)(C)C2 (stereo not shown) [Example 1-76] | ≥ 200
2 | CCCCC(NC(=O)c1[nH]c2c(c1C)C(=O)CC(C)(C)C2)C(=O)Nc1ccc2[nH]ccc2c1 (stereo not shown) [Example 1-96] | ≥ 200
3 | CCCCC(NC(=O)c1[nH]c2c(c1C)C(=O)CC(C)(C)C2)C(=O)NCc1ccc(CN(C)C)cc1 (stereo not shown) [Example 1-51] | < 50
4 | CCCCC(NC(=O)c1[nH]c2c(c1C)C(=O)CC(C)(C)C2)C(=O)Nc1c(C)cccc1OC (stereo not shown) [Example 1-36] | ≥ 200
5 | CCCCC(NC(=O)c1[nH]c2c(c1C)C(=O)CC(C)(C)C2)C(=O)Nc1cccc2ccccc12 (stereo not shown) [Example 1-31] | ≥ 200
6 | Cc1c(C(=O)NC(CCC2CC2)C(=O)Nc2ccc(SC(F)F)cc2)[nH]c2c1C(=O)CC(C)(C)C2 (stereo not shown) [Example 1-65] | ≥ 200
7 | Cc1c(C(=O)NC(CCC2CC2)C(=O)Nc2ccc(O)nc2)[nH]c2c1C(=O)CC(C)(C)C2 (stereo not shown) [Example 1-70] | 50 to 200
8 | CCCCC(NC(=O)c1[nH]c2c(c1C)C(=O)CC(C)(C)C2)C(=O)Nc1cccc2c1CCN(C)C2 (stereo not shown) [Example 1-55] | ≥ 200
9 | CCCCC(NC(=O)c1[nH]c2c(c1C)C(=O)CC(C)(C)C2)C(=O)Nc1ccc(CN2CCCC2)cc1 (stereo not shown) [Example 1-98] | < 50

Same assay, conditions: read-out: Inhibitory activity (G9a IC50)

Row | SMILES | IC50 [nM]
10 | CCCC[C@H](NC(=O)c1[nH]c2c(c1CC)C(=O)CC(C)(C)C2)C(=O)N[C@@H](CC)c1ccccc1 [Example 6-39] | 50 to 200
11 | Cc1c(C(=O)NC(CCC2CC2)C(=O)N2CCc3cc(OCCO)ccc32)[nH]c2c1C(=O)CC(C)(C)C2 (stereo not shown) [Example 1-133] | ≥ 200
12 | Cc1c(C(=O)NC(CCC2CC2)C(=O)N2CCc3cc(N4CCOCC4)ccc32)[nH]c2c1C(=O)CC(C)(C)C2 (stereo not shown) [Example 1-147] | ≥ 200
13 | CCCCC(NC(=O)C(c1ccccc1)c1ccccc1)C(=O)Nc1ccc(OC)nc1 (stereo not shown) [Example 7, 2-[(2,2-diphenylacetyl)amino]-N-(6-methoxypyridin-3-yl)hexaneamide] | 50 to 200
14 | COC(=O)c1ccc2c(c1)nc(C(CCC1CC1)NC(=O)c1[nH]c3c(c1C)C(=O)CC(C)(C)C3)n2C (stereo not shown) [Example 30-3] | ≥ 200
15 | Cc1c(C(=O)NC(CCC2CC2)c2nc3ccc(CN(C)C)cc3n2C)[nH]c2c1C(=O)CC(C)(C)C2 (stereo not shown) [Example 31-2] | ≥ 200
16 | Cc1c(C(=O)NC(CCC2CC2)C(=O)N(C)Cc2ccc(CN(C)C)cc2)[nH]c2c1C(=O)CC(C)(C)C2 (stereo not shown) [Example 6-20] | < 50
17 | CCCCC(NC(=O)c1[nH]c2c(c1C)C(=O)CC(C)(C)C2)C(=O)Nc1cc(NC(C)=O)ccc1OC (stereo not shown) [Example 1-114] | ≥ 200
18 | CCCC[C@H](NC(=O)c1[nH]c2c(c1C)C(=O)CC1(CCOCC1)C2)C(=O)N[C@@H](C)c1ccccc1 [Example 6-44] | ≥ 200
19 | CCCC[C@@H](CNc1ccccc1)NC(=O)c1[nH]c2c(c1C)C(=O)CC(C)(C)C2 [Example 17-1, (S)-3,6,6-trimethyl-4-oxo-N-(1-(phenylamino)hexan-2-yl)-4,5,6,7-tetrahydro-1H-indole-2-carboxamide] | ≥ 200
20 | Cc1c(C(=O)NC(CCC2CC2)C(=O)N2CCc3c(OC4CCN(C)CC4)cccc32)[nH]c2c1C(=O)CC(C)(C)C2 (stereo not shown) [Example 1-124] | 50 to 200
21 | CCCCC(NC(=O)c1[nH]c2c(c1C)C(=O)CC(C)(C)C2)C(=O)Nc1cccc(CN2CCC(F)CC2)c1 (stereo not shown) [Example 18-2] | < 50
22 | CCCCC(NC(=O)c1[nH]c2c(c1C)C(=O)CC(C)(C)C2)C(=O)NCc1ccc(CNC)cc1 (stereo not shown) [Example 18-6] | < 50
23 | Cc1c(C(=O)NC(C(=O)Nc2ccc(OC3CCN(C)CC3)nc2)c2ccc(Cl)cc2)[nH]c2c1C(=O)CC(C)(C)C2 (stereo not shown) [Example 6-29] | ≥ 200
24 | CCCC[C@H](NC(=O)c1[nH]c2c(c1CC)C(=O)CC(C)(C)C2)C(=O)N[C@@H](C)c1ccccc1 [Example 6-40] | 50 to 200
25 | COc1ccc(NC(=O)C(CCC2CC2)NC(=O)c2nc(-c3ccccc3)sc2C)cn1 (stereo not shown) [Example 6-54] | ≥ 200
26 | COc1ccc2c(c1)N(C(=O)C(CCC1CC1)NC(=O)c1[nH]c3c(c1C)C(=O)CC(C)(C)C3)CC2 (stereo not shown) [Example 1-131] | ≥ 200
27 | Cc1c(C(=O)NC(CCC2CC2)C(=O)Nc2cccnc2)[nH]c2c1C(=O)CC(C)(C)C2 (stereo not shown) [Example 6-16] | ≥ 200
28 | CCCC[C@H](NC(=O)c1[nH]c2c(c1C)C(=O)CC(C)(C)C2)c1nc2ccc(OCCCN3CCCCC3)cc2[nH]1 [Example 34-2] | 50 to 200

Row | SMILES | IC50 [nM]
29 | CCCCC(NC(=O)c1[nH]c2c(c1C)C(=O)CC(C)(C)C2)C(=O)Nc1cccc(CN(C)C)c1 (stereo not shown) [Example 18-1, N-[1-[3-[(dimethylamino)methyl]anilino]-1-oxohexan-2-yl]-3,6,6-trimethyl-4-oxo-5,7-dihydro-1H-indole-2-carboxamide] | < 50
30 | Cc1c(C(=O)NC(CCC2CC2)C(=O)N2CCc3c(CN4CCCCC4)cccc32)[nH]c2c1C(=O)CC(C)(C)C2 (stereo not shown) [Example 1-128] | < 50
31 | COc1ccc(NC(=O)C(CCC2CC2)NC(=O)c2ccc(Nc3ccnc(C)c3)cc2)cn1 (stereo not shown) [Example 6-63] | < 50
32 | Cc1c(C(=O)NC(CCC2CC2)C(=O)N2CCc3c(OCC4CCN(C)CC4)cccc32)[nH]c2c1C(=O)CC(C)(C)C2 (stereo not shown) [Example 1-121] | ≥ 200
33 | Cc1ccc(NC(=O)C(CCC2CC2)NC(=O)c2[nH]c3c(c2C(C)C)C(=O)CC(C)(C)C3)cn1 (stereo not shown) [Example 6-5] | 50 to 200
34 | COc1ccc2c(c1)CCN2C(=O)C(CCC1CC1)NC(=O)c1[nH]c2c(c1C)C(=O)CC(C)(C)C2 (stereo not shown) [Example 1-130] | ≥ 200
35 | CCCCC(NC(=O)c1[nH]c2c(c1C)C(=O)CC(C)(C)C2)C(=O)Nc1ccc(OCCN)nc1 (stereo not shown) [Example 24-4] | 50 to 200
36 | CCc1c(C(=O)N[C@@H](CCC2CC2)C(=O)Nc2ccc(C#N)cc2)[nH]c2c1C(=O)CC(C)(C)C2 [Example 15-3] | 50 to 200
37 | Cc1cccc2c1CCN2C(=O)C(CCC1CC1)NC(=O)c1[nH]c2c(c1C)C(=O)CC(C)(C)C2 (stereo not shown) [Example 1-116] | ≥ 200
38 | CCN(CC)Cc1cccc2c1nc(C(CCC1CC1)NC(=O)c1[nH]c3c(c1C)C(=O)CC(C)(C)C3)n2C (stereo not shown) [Example 31-4] | ≥ 200
39 | CCc1cc(C#N)ncc1NC(=O)C(CCC1CC1)NC(=O)c1[nH]c2c(c1C)C(=O)CC(C)(C)C2 (stereo not shown) [Example 15-2] | 50 to 200
40 | CCCC[C@H](NC(=O)c1[nH]c2c(c1C)C(=O)CC(C)(C)C2)C(=O)NCc1ccc(N2CCN(CCC)CC2)cc1 [Example 22-4] | ≥ 200
41 | Cc1c(C(=O)NC(CCC2CC2)c2nc3c(CN(C)C)cccc3n2C)[nH]c2c1C(=O)CC(C)(C)C2 (stereo not shown) [Example 31-3] | ≥ 200
42 | CCCC[C@H](NC(=O)c1[nH]c2c(c1C)C(=O)CC(C)(C)C2)c1nc2ccc(OCCO)cc2[nH]1 [Example 36, (S)-N-(1-(6-(2-hydroxyethoxy)-1H-benzo[d]imidazol-2-yl)pentyl)-3,6,6-trimethyl-4-oxo-4,5,6,7-tetrahydro-1H-indole-2-carboxamide] | ≥ 200
43 | Cc1c(C(=O)NC(CCC2CC2)C(=O)N2CCc3c(OCCN4CCCCC4)cccc32)[nH]c2c1C(=O)CC(C)(C)C2 (stereo not shown) [Example 1-123] | 50 to 200
44 | COc1ccc(NC(=O)C(CCC2CC2)NC(=O)c2ccc(-c3ccncc3)cc2C)cn1 (stereo not shown) [Example 6-50] | ≥ 200
45 | COc1ccc(NC(=O)C(CCC2CC2)NC(=O)c2ccc(C3CCN(C)CC3)cc2)cn1 (stereo not shown) [Example 6-69] | ≥ 200
46 | CCCC[C@H](NC(=O)c1[nH]c2c(c1C)C(=O)CC(C)(C)C2)C(=O)N1CCc2c(OCCN3CCCCC3)cccc21 [Example 6-104] | ≥ 200

Source: patent publication US20230127046A1, “G9a INHIBITOR” (RIKEN, priority 2019, published 2023)
